The subject of data set [1] is formalin-induced nociceptive responses. The following applies: cited from earlier work; for nociceptive responses to formalin-produced peripheral neuropathy: systemic and intrathecal administration, mice and rats.
The test system of data set [2] is iNOS gene expression. The data set can be described thus: LPS-induced iNOS gene overexpression in brain tissue, septic shock model (quantitative RT-PCR). The format is in vivo. The following applies: mice; 50 mg/kg injected simultaneously with LPS 20 mg/kg i.p.; tissue sampled 6 h after; compared with LPS group. The procedure:
(§1) Male ICR mice weighing 25-30 g were obtained from the Laboratory of Experimental Animals, Riga Stradins University (Riga, Latvia), and housed under standard conditions (21-23° C., relative humidity 65%±10%, 12 h light-dark cycle) with unlimited access to standard food (R70 diet, Lactamin AB, Sweden) and water. The experimental procedures were performed in accordance with the guidelines reported in EU Directive 2010/63/EU and in accordance with local laws and policies; all of the procedures were approved by the Latvian Animal Protection Ethical Committee of Food and Veterinary Service in Riga, Latvia. To eliminate systematic differences between the treatment groups, the animals were randomly assigned to their respective experimental groups (12 animals in each group for formalin test and 6 animals in each group for LPS test). To avoid subjective factors in the rating process, all experimental procedures were performed in a blinded fashion.
The iNOS gene expression was stimulated by a single intraperitoneal (i.p.) injection of LPS at a dose of 20 mg/kg 6 h before the tissue sampling. Control animals received i.p. injection of saline (0.9% NaCl). […]
Brain tissue after sampling were immediately frozen in liquid nitrogen and stored at −80° C. […] Samples were diluted with water at v/v ratio of 1:20 and the quality and quantity of extracted total RNA were examined by measuring the absorbance at 230, 260 and 280 nm with a μQuant™ (BioTek) spectrophotometer. […] Quantitative RT-PCR analysis for iNOS was performed by mixing synthesized cDNA (diluted with water at v/v ratio of 1:10), appropriate primers, and SYBR® Green Master Mix (Applied Biosystems™, USA) and run in the Applied Biosystems Prism 7500 according to the manufacturer's protocol. The transcript levels for the constitutive housekeeping gene product β-actin were quantitatively measured for each sample, and PCR data were reported as the number of transcripts per number of β-actin mRNA molecules.

The test system of data set [3] is LPS-induced hypothermia. Description: LPS-induced hypothermia (rectal temperature), septic shock model. The format is in vivo. The conditions noted are these: mice; 50 mg/kg i.p. simultaneously with LPS 20 mg/kg; 6 h after injection. The procedure: as §1
The hypothermia was induced by an i.p. injection of LPS at a dose of 20 mg/kg. Control animals received i.p. injection of saline (0.9% NaCl). […] The rectal temperature of animals was measured using a thermometer (Thermalert TH-5, USA) at 5 min before LPS or saline injection and 6 hours after injection.

The subject of data set [4] is formalin-induced paw licking. The data set can be described thus: Formalin-induced paw licking test (formalin-induced peripheral neuropathy). It is filed as in vivo. The conditions noted are these: mice, pre-treatment 50 mg/kg. The procedure:
as §1
Formalin-induced licking paw test was performed as described previously by Zvejniece et al 2006 (Zvejniece L., Muceniece R., Krigere L., Dambrova M., Klusa V. Z. Pharmacol. Biochem. Behav. 2006, 85 (2),287-91). Briefly, mice were gently restrained and 30 μl of formalin solution (1.5% in saline) was injected s.c. into the plantar surface of the right hind paw, using a microsyringe with a 27-gauge needle. Each mouse was then placed in an individual clear Plexiglas observation chamber (30×20×30 cm) and the total licking time of hind paw of each mouse was registered and quantified in subsequent 5-minute intervals for 50 minutes. The recording of licking time started immediately (first phase) and lasted for 5 min. The late phase (second phase) started about 15-20 min after formalin injection and lasted up to 35 min.

For data set [5] the following is noted: i.p. administration; cited from earlier work.
For data set [6] the following is noted: in vivo; cited from earlier work.
Data set [7] deals with NOS. The following applies: patients with septic shock, cited from earlier work.
Where [8] appears, read: phase II, compared to saline treated group.

Entries after “also recorded” stand apart in the source; their conditions may differ. Where a name gives a salt, the structure may show the parent alone.

For the molecule `O=[N+]([O-])c1cccc2cn[nH]c12` [7-nitroindazole], the “nociceptive responses to formalin-produced peripheral neuropathy” value in data set [1] is on record as “reduces nociceptive responses”.

On to `NC(=O)CN1C[C@@H](c2ccccc2)CC1=O` [(4R)-2-(4-phenyl-2-oxopyrrolidin-1-yl)acetamide], for which the “LPS-induced iNOS gene expression in brain tissue” value (from here on “LPS-induced iNOS gene expression”) in data set [2] is listed as “highly effective; also recorded: significantly reduced”. In addition, in data set [3], the “LPS-induced hypothermia (rectal temperature)” value is on record as “significantly inhibited”. Moreover, the “reduction of the paw licking behavior in phase II” value in data set [4] (phase II) came to 46%. The “paw licking response time in II phase” value in data set [4] (setting [8]) is “significant inhibition”. Further, the “dose up to which no side effects on the body system are caused” value in data set [5] was ≤ 250 mg/kg. Further, the excretion from body result in data set [6] was “totally excreted from body in unmetabolized form”.

`NC(=O)CN1CC(c2ccccc2)CC1=O` [(4R,S)-2-(4-phenyl-2-oxopyrrolidin-1-yl)acetamide]: the “LPS-induced iNOS gene expression” value in data set [2] is recorded as “tendency to reduce LPS action; also recorded: did not reduce”. Besides, in data set [4] (phase I, compared to saline treated group), the “paw-licking time in I phase” value is on record as “did not reduce; also recorded: almost no effect”. For the same molecule, the “paw licking response time in II phase” value in data set [4] (setting [8]) was “did not reduce; also recorded: almost no effect”.

As to `NC(=O)CN1C[C@H](c2ccccc2)CC1=O` [(4S)-2-(4-phenyl-2-oxopyrrolidin-1-yl)acetamide], in data set [2], the “LPS-induced iNOS gene expression” value was “absolutely inactive; also recorded: did not reduce”.

On to `N#Cc1ccc(C(=O)N2CCC3(CC2)N=C(N)c2c(F)ccc(F)c2N3)cn1` [AR-C102222], for which, in data set [1], the “peripheral nociception in formalin-induced paw licking test II phase” value (“peripheral nociception” for short) is “reduce peripheral nociception”.

Consider `COC(=O)[C@@H](N)CCCNC(=N)N[N+](=O)[O-]` [L-NAME, Nω-nitro-L-arginine methyl ester], for which, in data set [1], the “nociceptive responses to formalin-produced peripheral neuropathy” value is on record as “reduces nociceptive responses”. Besides, the “results of the phase II trial in septic shock” value in data set [7] (placebo-controlled double-blind study) is recorded as “promising”. Further, in data set [7] (trial terminated prematurely), the “mortality in the treatment group, phase III trial” value is listed as “increase in mortality”.

Turning to `N=C(N)NN` [aminoguanidine hydrochloride], in data set [1], the “peripheral nociception” value is reported as “reduce peripheral nociception”.

For `CN(C)CCC=C1c2ccccc2CCc2ccccc21` [amitriptyline], in data set [1], the “peripheral nociception” value is reported as “anti-nociceptive activity”.

Take `NCC1(CC(=O)O)CCCCC1` [gabapentin]: the “peripheral nociception” value in data set [1] is listed as “anti-nociceptive activity”.

For the molecule `CC(C)C[C@H](CN)CC(=O)O` [pregabalin], the “peripheral nociception” value in data set [1] is listed as “anti-nociceptive activity”.
